Experimental data reported in patent US8716355B2, “Hydroxylated tolans and related compounds in the treatment of a cancer” (Kent State University, priority 2007, dated 2014).
Like-named read-outs stand apart in the source and are kept apart here.

Legend:
Mushroom tyrosinase = test: Inhibition of mushroom tyrosinase activity; assay type: biochemical; settings: concentration not given
Procedure: All chemical used for reagents were purchased from Sigma Chemical Company. KST201 at each tested concentration (1000, 250 and 100 μM) was dissolved in 10% ethanol from a master mixture of the drug prepared at 0.1M in 100% ethanol.
Mushroom tyrosinase (Sigma) was diluted in 50 mM phosphate buffer, pH 6.5 to yield a concentration of 16 U/μl. […] A master mix containing 0.5 mM L-DOPA [3,4-dihydroxy-1-phenylalanine], 10 mM Sodium L-tyrosine in 50 mM phosphate buffer, pH 6.5 was prepared. The KST-201 dilutions were preincubated with the enzyme for 20 minutes. The samples were pipetted into 24 well plates and the master mixture added quickly. The reaction was read using a kinetic format in which wells were read every 30 seconds over a course of 10 minutes at a wavelength of 475 nm using a Synergy HT Plate reader. A kinetic curve was generated for each sample compared to a total reaction with mushroom tyrosinase without a drug (total).

HSV-1 [1] = test: HSV-1 replication in infected Vero cells (plaque assay); assay type: cell-based, Herpes Simplex Virus-Type 1
Procedure: For this purpose HSV-1 replication at 24, 48 and 72 h was examined in the presence or absence of varying concentrations of the polyphenol.
The SI is the ratio of the CD50 divided by a selected inhibitory concentration (IC %).
Viral inhibition by Tolan-3 appeared to occur after viral entry into cells. […] Subsequently, the compound was removed and replaced with culture medium alone, and the incubated continued for 48 or 72 more hrs. In a second experiment, HSV-1 infected Vero cells were incubated with 350 μM Tolan-3 for 48 h. Thereafter, the Tolan-3 was removed and replaced by medium and the incubation continued for an additional 24 h. Viral titers were calculated by a standard plaque assay.

colon cancer = test: Colon cancer patients (Example VIII E); assay type: in vivo, human
Procedure: Eight patients suffering from advanced colon cancer are treated daily for three weeks with an intravenous infusion of 2 g of the compounds KST-201, KST-213, KST-301 or KST-401 dissolved in saline. Two patients are assigned to each compound. The compounds are dissolved in sterile saline. […] Progression of the tumor is also arrested over the treatment period.
Another eight patients with terminal colon cancer are treated by daily bolus injections (intravenous or intramuscular) of 2 g of KST-201, KST-213, KST-301 or KST-401.

HSV-1 [2] = test: Direct inactivation, attachment and penetration of HSV-1; assay type: cell-based, Herpes Simplex Virus-Type 1
Procedure: To determine whether Tolan-3 directly inactivated the virus, Tolan-3 was incubated with HSV-1 at room temperature for 1, 30 or 60 minutes while controls were also incubated with HSV-1 at room temperature without Tolan-3. The treated or control virus was plated onto Vero cells.

ovarian cancer = test: Ovarian cancer patients (Example VIII D); assay type: in vivo, human; settings: daily gelatin capsule 200 mg
Procedure: A study is carried out in a group of 40 women with ovarian cancer of various grades to determine the effect of treatment with compounds of KST-201, KST-213, KST-301 and KST-401. The administration protocol involves daily administration of a gelatin capsule containing 200 mg of active compound.

prostate cancer = test: Prostate cancer patients (Example VIII A); assay type: in vivo, human; settings: daily 10 μg to 5 mg/Kg; no significant differences between the four groups
Procedure: A group of 40 men aged 55-75 suffering from prostate cancer receive a daily dosage of between 10 μg and 5 mg/Kg body weight of KST-201, KST-213, KST-301 or KST-401 (10 patients per compound). Examination of the patients by clinical, radiographic and histopathological tests show significant shrinkage in tumors, and signs of cell death in 38% of the patients; there are no significant differences between the four treatment groups.

bladder cancer = test: Bladder cancer patients (Example VIII B); assay type: in vivo, human; settings: intravenous 10 μg to 5 mg/kg over three months
Procedure: A group of 20 men and 20 women aged 50-75 with bladder cancer are treated by intravenous injection of between 10 μg and 5 mg/kg of KST-201, KST-213, KST-301 or KST-401. Each compound is given to a group of 5 men and 5 women) over a period of three months. Clinical, radiographic and histopathological tests show significant remission in 35% of patients, accompanied by signs of cell death in 45%. There are no significant differences between the results with the four compounds.

breast cancer = test: Breast cancer prevention, skin patch (Example VIII C); assay type: in vivo, human; settings: transdermal patch 10 mg to 100 mg daily, one-year study
Procedure: This study investigates whether KST-201, KST-213, KST-301 and KST-401 administered transdermally each day through a skin patch aid in preventing breast cancer or metastatic cancer following cancer therapy. Patches are prepared with a lipophilic carrier which is readily absorbed through the skin (glycerol cold cream containing glycerin and peanut oil). The HT compound is mixed with the lipophilic cream such that each patch comprises 10 mg to 100 mg of active compound. The patch is applied to the skin each day, and rapid absorption occurs. After two hours, the patch is removed.

HSV-1 [3] = tested on: HSV-1
Text: FIG. 2. […] A 10% w/v solution of KST-301 in DMSO was applied topically to the epidermal infection site 3×/day for 5 days. Controls animals received the same volume of the DMSO vehicle at the same intervals. Lesions were scored as 0=no visible lesions, +1=papules around the infection site, +2=papules are ulcerated around the infection site with eschar formation, +3=ulcerated zosteriform spread along peripheral nerves to the flank of the animal, +4=ulcerated lesions open on the flank, and +5=death of the animal.
The lesions were scored as in the description for FIG. 2.

Vero cells = test: Cytotoxicity (CD50) on Vero cells; assay type: cell-based; settings: 48 hours of exposure
Text: See Example II for tumor cell cytotoxicity of these compounds. […] NAB group 32 contains two compounds, Tolan-2 (also designated herein as KST-201) and Stil-2. Based on the NAB, they were classified as topological isomers. However, chemically they differ because Stil-2, a […], contained a double bonded linker, while Tolan-2 contained a triple bonded linker. The cytotoxicity of the two molecules on Vero cells differed markedly: Tolan-2 was less toxic than Stil-2.

terminal cancer = settings: cited from earlier work
T24 = test: MTT cytotoxicity, T24 bladder cancer cells; assay type: cell-based, human; settings: Homo sapiens, VC:KST-201 200:1, read-out: CD50 (μM) of each Compound tested in combination, T24
Procedure: (§1) As a first step, the antitumor activity of the tolans was assessed against a panel of three cancer cells lines that produce solid tumors upon implantation into animals. DU145 is an androgen-independent prostate cancer cells. T24 is a transitional cell bladder carcinoma cell. MDAH2274 (“MDAH) is an endometroid ovarian adenocarcinoma cell. To assess the selectivity of this antitumor activity, the toxicity of the tolans to normal human fibroblasts (MHRF) was examined.
Cell killing was evaluated using the colorimetric MTT assay. The assay measures the formation of a colored product from a chromogenic precursor, the tetrazole 3-[4,5-dimethylthiazol-2-yl]-2,5 diphenyltetrazolium bromide (MTT). The yellow MTT is reduced to purple formazan in the mitochondria of living cells. A solubilization solution (typically dimethyl sulfoxide or sodium dodecyl sulfate in dilute hydrochloric acid) is added to dissolve the insoluble purple formazan product into a colored solution. The absorbance of this colored solution is quantified by measuring at a certain wavelength (usually between 500 and 600 nm) by a spectrophotometer. […] This MTT assay is used widely to assess the cytotoxicity and selectivity of compounds such as anti-cancer drugs. The assay is suitable for rapid toxicity characterization of a test agent such as a drug formulation. […] A lower CD50 indicates a greater cytotoxic activity (as a lower amount of the agent is needed to achieve a fixed level of cytotoxicity). Two agents can be compared by examining the fold-increase or decrease in their CD50 values. […]

[4] = mice; 6.5 g/Kg daily for 6 weeks and 2 g/Kg for 2 years; cited from earlier work
MDAH2274 = test: MTT cytotoxicity, MDAH2274 ovarian cancer cells; assay type: cell-based, human; settings: Homo sapiens
Procedure: as §1
Cell killing was evaluated using the colorimetric MTT assay. The assay measures the formation of a colored product from a chromogenic precursor, the tetrazole 3-[4,5-dimethylthiazol-2-yl]-2,5 diphenyltetrazolium bromide (MTT). The yellow MTT is reduced to purple formazan in the mitochondria of living cells. A solubilization solution (typically dimethyl sulfoxide or sodium dodecyl sulfate in dilute hydrochloric acid) is added to dissolve the insoluble purple formazan product into a colored solution. The absorbance of this colored solution is quantified by measuring at a certain wavelength (usually between 500 and 600 nm) by a spectrophotometer. […] This MTT assay is used widely to assess the cytotoxicity and selectivity of compounds such as anti-cancer drugs. The assay is suitable for rapid toxicity characterization of a test agent such as a drug formulation. […] A lower CD50 indicates a greater cytotoxic activity (as a lower amount of the agent is needed to achieve a fixed level of cytotoxicity). Two agents can be compared by examining the fold-increase or decrease in their CD50 values.

advanced cancer = settings: 10 g oral VC, randomized placebo-controlled trials; cited from earlier work
[5] = intravenous infusion 2 g daily for three weeks

## Oc1ccc(C#Cc2cc(O)cc(O)c2)cc1 [KST-301, 3,4′,5-trihydroxytolan]
Mushroom tyrosinase
  % inhibition of mushroom tyrosinase activity: 40.1±9.9%
HSV-1 [1]; 350 μM, removed as late as 48 hours post infection
  Reversibility of HSV-1 inhibition after removal of compound: HSV-1 replication recovered
HSV-1 [1]; 48 h post-infection
  SI50 (selectivity index, CD50 divided by IC50): > 63
HSV-1 [1]; Human alphaherpesvirus 1, Vero, read-out: IC50, concentration at which 50% of HSV-1 replication was inhibited, viral assays at lower compound concentrations
  IC50: 6.37 µM
HSV-1 [1]; at CD50, 75% and 50% of CD50, 24, 48, 72 h
  Effect on HSV-1 viral replication in Vero cells (in words): significant anti-HSV activity
Colon cancer; daily bolus injections (intravenous or intramuscular) of 2 g
  Dissemination of the tumors: dissemination of the tumors is diminished
Colon cancer; [5]
  Cancer marker carcinoembryonic antigen (CEA): significant reduction
  Progression of the tumor: arrested
HSV-1 [2]
  Inhibition of HSV-1 attachment or penetration: did not inhibit HSV-1 attachment or penetration
HSV-1 [2]; incubated with HSV-1 at room temperature 1, 30 or 60 minutes
  Direct inactivation of HSV-1: did not directly inactivate HSV-1
Ovarian cancer
  Rate of production of ovarian cancer markers (Muc-1, Sp17): significant decrease
  Tumor growth during study period: Tumors regress or show no further growth
Prostate cancer
  Patients with significant shrinkage in tumors, and signs of cell death: 38%
Bladder cancer
  Patients with signs of cell death: 45%
Bladder cancer; no differences between compounds
  Patients with significant remission: 35%
Breast cancer
  Breast cancer or metastatic cancer in high-risk group: does not show any evidence of breast cancer or other metastatic cancer
HSV-1 [3]; 5% w/v solution, topical, hairless mice
  Number and severity of HSV lesions: significantly reduced the number and severity of HSV lesions
HSV-1 [3]; 10% w/v solution in DMSO, topical 3×/day for 5 days, hairless mice
  Severity of HSV-1 lesions: significantly reduced
HSV-1 [3]; topical solution in DMSO
  Treated animals in which lesion formation was prevented: 67%
HSV-1 [3]; topical solution in DMSO, controls 83-100%
  Treated animals showing evidence of HSV infection: 33%
HSV-1 [3]; topical solution in DMSO, scale 0 to +5, controls 3.8-4 by days 8 and 9
  Maximum (average) lesion score: 0.8-1.2
HSV-1 [3]; topical, hairless mice
  Dermal toxicity (erythema, scaling, crusting, lichenification, excoriation): no apparent dermal toxicity
Vero cells
  CD50: 350 µM
  Log CD50: 2.54

## O=C1O[C@H]([C@@H](O)CO)C([O-])=C1O.[Na+] [VC, sodium ascorbate, reference compound]
Terminal cancer; 100 terminal cancer patients, 10 g/day i.v. 10 days then oral, controls 50 days
  Mean survival time (MST): > 210 days
Terminal cancer; 100 terminal cancer patients
  MST, times greater than that of the controls: more than 4.2 times
Terminal cancer; six ovarian cancer subjects, controls 71 days
  MST of subjects with ovarian cancer: 148 days
T24; T-24, 24 h, 1 day
  IC50: 638 µM
T24; T-24, 48 h, 2 days
  IC50: 634 µM
[4]
  Mortality, weight changes, blood chemistry, hematology, histology, other pathologies: no abnormal rates of mortality
MDAH2274; 24 h, MTT, 1 day incubation, read-out: CD50 against MDAH, compound tested individually
  IC50: 937 µM
MDAH2274; 24 h, VC:KST-201 400:1, 1 day, read-out: CD50 (μM) of each Compound tested in combination, MDAH 2274
  IC50: 466 µM
MDAH2274; 48 h, MTT, 2 days incubation, read-out: CD50 against MDAH, compound tested individually
  IC50: 900 ± 46.7 µM
MDAH2274; 48 h, VC:KST-201 400:1, 2 days, read-out: CD50 (μM) of each Compound tested in combination, MDAH 2274
  IC50: 389 ± 9.6 µM
MDAH2274; 72 h, MTT, 3 days incubation, read-out: CD50 against MDAH, compound tested individually
  IC50: 879 µM
MDAH2274; 72 h, VC:KST-201 400:1, 3 days, read-out: CD50 (μM) of each Compound tested in combination, MDAH 2274
  IC50: 393 µM
Advanced cancer
  Benefit of oral VC treatment: no benefits of oral VC treatment
